Measurements published in PubChem BioAssay AID330 (DTP/NCI, 2004).
“And” between values parts separate entries of the source, which are not always exact repeats. Identical values can stand only once. Inconclusive results and toxic doses are left out. How the source made its calls: active means survival T/C of 150% or more; inactive means T/C below 125% in these data.

Test system: P388 leukemia ip, CD2F1 mice, survival T/C
Assay: NCI In Vivo Anticancer Drug Screen. Data for tumor model P388 Leukemia (intraperitoneal) in CD2F1 (CDF1) mice
Details: endpoint: median survival time, higher = longer survival
Procedure, shortened: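 Mice carrying the transplanted tumor received test compound or vehicle. Survival was recorded in each group, and the value is the treated-group measurement divided by that of the vehicle-treated control group.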

[1] = dose: 50.0 mg/kg/injection, schedule: Q01DX005 (ip), vehicle: Klucel (hydroxypropylcellulose) (HPC)
[2] = dose: 100.0 mg/kg/injection, schedule: Q01DX005 (ip), vehicle: Klucel (hydroxypropylcellulose) (HPC)
[3] = dose: 200.0 mg/kg/injection, schedule: Q01DX005 (ip), vehicle: Klucel (hydroxypropylcellulose) (HPC)
[4] = dose: 12.5 mg/kg/injection, schedule: Q01DX009 (ip), vehicle: saline with Tween-80
[5] = dose: 100.0 mg/kg/injection, schedule: Q01DX009 (ip), vehicle: saline with Tween-80
[6] = dose: 50.0 mg/kg/injection, schedule: Q01DX005 (ip), vehicle: saline with Tween-80
[7] = dose: 100.0 mg/kg/injection, schedule: Q01DX005 (ip), vehicle: saline with Tween-80
[8] = dose: 200.0 mg/kg/injection, schedule: Q01DX005 (ip), vehicle: saline with Tween-80
[9] = dose: 12.5 mg/kg/injection, schedule: Q01DX005 (ip), vehicle: saline with Tween-80
[10] = dose: 25.0 mg/kg/injection, schedule: Q01DX005 (ip), vehicle: saline with Tween-80
[11] = dose: 60.0 mg/kg/injection, schedule: Q01DX005 (ip), vehicle: saline
[12] = dose: 120.0 mg/kg/injection, schedule: Q01DX005 (ip), vehicle: saline

Measured: T/C

C1COCCN2CCOCCOCCN(CCO1)CCOCC2
inactive: dose: 50.0 mg/kg/injection, schedule: Q01DX009 (ip), vehicle: saline 109 % of control | dose: 100.0 mg/kg/injection, schedule: Q01DX009 (ip), vehicle: saline 106 % of control | dose: 200.0 mg/kg/injection, schedule: Q01DX009 (ip), vehicle: saline 107 % of control

CC1=C(C(=O)Nc2ccccc2)C(c2ccccc2F)C(C(=O)Nc2ccccc2)=C(C)N1
inactive: dose: 100.0 mg/kg/injection, schedule: Q04DX002 (ip), vehicle: saline with Tween-80 100 % of control | dose: 200.0 mg/kg/injection, schedule: Q04DX002 (ip), vehicle: saline with Tween-80 100 % of control | dose: 400.0 mg/kg/injection, schedule: Q04DX002 (ip), vehicle: saline with Tween-80 91 % of control

COC(=O)CCC1=C(C)c2cc3[nH]c(cc4[nH]c(cc5nc(cc1n2)C(CCC(=O)OC)=C5C)c(C1CC1C(=O)OC)c4C)c(C1CC1C(=O)OC)c3C (stereo not drawn)
inactive: [1] 104 % of control | [2] 104 % of control | [3] 109 % of control

CN(C)CCNc1ccc([N+](=O)[O-])c2sc3ccccc3c(=O)c12
inactive: [4] 114 % of control | [5] 103 % of control and 89 % of control

O=C(OCC(OC(=O)c1ccccc1)C(OC(=O)c1ccccc1)C(OC(=O)c1ccccc1)c1nn[nH]n1)c1ccccc1 (stereo not drawn)
inactive: [6] 100 % of control | [7] 100 % of control | [8] 95 % of control

Nc1csc(Nc2c3ccccc3nc3ccccc23)n1
inactive: dose: 12.5 mg/kg/injection, schedule: Q04DX002 (ip), vehicle: distilled water + Tween-80 98 % of control | dose: 25.0 mg/kg/injection, schedule: Q04DX002 (ip), vehicle: distilled water + Tween-80 97 % of control

COc1cccc(N=C(C)C2C(=O)c3ccccc3C2=O)c1
inactive: [6] 109 % of control | [7] 100 % of control | [8] 95 % of control

CCCCCCCCCCCCCC1C=CCC1 (stereo not drawn)
inactive: dose: 100.0 mg/kg/injection, schedule: Q01DX001 (ip), vehicle: saline 101 % of control | dose: 200.0 mg/kg/injection, schedule: Q01DX001 (ip), vehicle: saline 99 % of control | dose: 400.0 mg/kg/injection, schedule: Q01DX001 (ip), vehicle: saline 100 % of control

COC(=O)NC1=Nc2ccccc2N(C(=O)Oc2ccccc2)S1
inactive: dose: 50.0 mg/kg/injection, schedule: Q01DX005 (ip), vehicle: acetone 100 % of control | dose: 100.0 mg/kg/injection, schedule: Q01DX005 (ip), vehicle: acetone 100 % of control | dose: 200.0 mg/kg/injection, schedule: Q01DX005 (ip), vehicle: acetone 107 % of control

CCC1(CC)C(=O)N(C)P(=O)(Oc2ccccc2)N(C)C1=O
inactive: dose: 100.0 mg/kg/injection, schedule: Q04DX002 (ip), vehicle: saline 100 % of control | dose: 200.0 mg/kg/injection, schedule: Q04DX002 (ip), vehicle: saline 103 % of control | dose: 400.0 mg/kg/injection, schedule: Q04DX002 (ip), vehicle: saline 101 % of control

CSc1nc2ncnc(N)c2[nH]1
inactive: [6] 93 % of control | [7] 96 % of control | [8] 108 % of control

O=N[O-].O=N[O-].[I][Pt][I]
inactive: dose: 12.5 mg/kg/injection, schedule: Q01DX005 (ip), vehicle: saline 116 % of control and 117 % of control | dose: 25.0 mg/kg/injection, schedule: Q01DX005 (ip), vehicle: saline 124 % of control | dose: 50.0 mg/kg/injection, schedule: Q01DX005 (ip), vehicle: saline 105 % of control | dose: 100.0 mg/kg/injection, schedule: Q01DX005 (ip), vehicle: saline 124 % of control

Cn1cccc1C(C=C(c1ccccc1)c1ccccc1)c1cccn1C
inactive: [9] 113 % of control | [10] 114 % of control | [6] 104 % of control and 88 % of control

c1ccc2c(SCCCCSc3c4ccccc4nc4ccccc34)c3ccccc3nc2c1
inactive: [11] 113 % of control | [12] 98 % of control | dose: 240.0 mg/kg/injection, schedule: Q01DX005 (ip), vehicle: saline 89 % of control

O=C(Nc1cccc(C(F)(F)F)c1)C12CC3CC(CC(C3)C1)C2
inactive: dose: 6.25 mg/kg/injection, schedule: Q01DX009 (ip), vehicle: saline with Tween-80 98 % of control | [4] 100 % of control | dose: 25.0 mg/kg/injection, schedule: Q01DX009 (ip), vehicle: saline with Tween-80 91 % of control | dose: 50.0 mg/kg/injection, schedule: Q01DX009 (ip), vehicle: saline with Tween-80 90 % of control | [5] 88 % of control

CCN(CC)CCNc1cccc2oc3ccc(OS(=O)(=O)c4ccc(C)cc4)cc3c(=O)c12
inactive: [6] 97 % of control | [7] 100 % of control | [8] 102 % of control

CC(=O)c1ccc2c3c(cc(C)c2c1)CCCC3
inactive: [1] 103 % of control | [2] 99 % of control | [3] 89 % of control

O=S(=O)(OCCCl)c1cc(Cl)c(Cl)cc1Cl
inactive: [1] 105 % of control | [2] 114 % of control | [3] 90 % of control

Cc1csc2ccc(Cl)cc12
inactive: dose: 100.0 mg/kg/injection, schedule: Q01DX001 (ip), vehicle: Klucel (hydroxypropylcellulose) (HPC) 95 % of control | dose: 200.0 mg/kg/injection, schedule: Q01DX001 (ip), vehicle: Klucel (hydroxypropylcellulose) (HPC) 107 % of control | dose: 400.0 mg/kg/injection, schedule: Q01DX001 (ip), vehicle: Klucel (hydroxypropylcellulose) (HPC) 107 % of control

C[CH2][Sn]1([CH2]C)[O]S(=O)(=O)[O]1
inactive: dose: 1.56 mg/kg/injection, schedule: Q01DX005 (ip), vehicle: saline 124 % of control

CCN1CCCC(Nc2cc(C)nc(/N=C(/N)Nc3ccc(Cl)c(Cl)c3)n2)C1 (stereo not drawn)
inactive: dose: 3.13 mg/kg/injection, schedule: Q01DX009 (ip), vehicle: water 93 % of control | dose: 6.25 mg/kg/injection, schedule: Q01DX009 (ip), vehicle: water 97 % of control | dose: 12.5 mg/kg/injection, schedule: Q01DX009 (ip), vehicle: water 107 % of control and 97 % of control | dose: 25.0 mg/kg/injection, schedule: Q01DX009 (ip), vehicle: water 101 % of control

CCCCOc1cc2c(cc1C(C)c1ccccc1)OCO2 (stereo not drawn)
inactive: [9] 94 % of control | [10] 91 % of control | [6] 101 % of control and 90 % of control

C=C1C(=O)OC2CC1C(O)C/C(C)=C/CC/C(C)=C/C(O)CC2C (stereo not drawn)
inactive: dose: 6.25 mg/kg/injection, schedule: Q01DX009 (ip), vehicle: Klucel (hydroxypropylcellulose) (HPC) 104 % of control | dose: 12.5 mg/kg/injection, schedule: Q01DX009 (ip), vehicle: Klucel (hydroxypropylcellulose) (HPC) 110 % of control | dose: 25.0 mg/kg/injection, schedule: Q01DX009 (ip), vehicle: Klucel (hydroxypropylcellulose) (HPC) 104 % of control and 112 % of control

CC(=O)Oc1ccc(OC(C)=O)c2cc3c(cc12)C(=O)C(C)=C(C)C3=O
inactive: [1] 89 % of control | [2] 97 % of control | [3] 111 % of control

Nc1nc(N)c(Cc2ccccn2)cc1Cc1ccccn1
inactive: [1] 98 % of control | [2] 103 % of control

COc1ccc(C(C)c2cc3c(cc2OC)OCO3)cc1 (stereo not drawn)
inactive: [9] 101 % of control and 109 % of control and 95 % of control | dose: 25.0 mg/kg/injection, schedule: Q01DX005 (ip), vehicle: saline + alcohol 92 % of control | dose: 50.0 mg/kg/injection, schedule: Q01DX005 (ip), vehicle: saline + alcohol 91 % of control | dose: 100.0 mg/kg/injection, schedule: Q01DX005 (ip), vehicle: saline + alcohol 93 % of control | dose: 200.0 mg/kg/injection, schedule: Q01DX005 (ip), vehicle: saline + alcohol 106 % of control

C/C=C(\C)C(=O)OC1C2C(C)C(=O)OC2C(O)C(C)C2C=CC(=O)C21C (stereo not drawn)
inactive: dose: 2.5 mg/kg/injection, schedule: Q01DX009 (ip), vehicle: Klucel (hydroxypropylcellulose) (HPC) 100 % of control | dose: 5.0 mg/kg/injection, schedule: Q01DX009 (ip), vehicle: Klucel (hydroxypropylcellulose) (HPC) 106 % of control | dose: 10.0 mg/kg/injection, schedule: Q01DX009 (ip), vehicle: Klucel (hydroxypropylcellulose) (HPC) 99 % of control | dose: 20.0 mg/kg/injection, schedule: Q01DX009 (ip), vehicle: Klucel (hydroxypropylcellulose) (HPC) 108 % of control

COc1ccc(N2C(=O)/C(=C/c3ccccc3)N=C2/C=C/c2ccc(Cl)cc2)cc1
inactive: dose: 15.0 mg/kg/injection, schedule: Q01DX005 (ip), vehicle: Klucel + Tween-80 93 % of control | dose: 30.0 mg/kg/injection, schedule: Q01DX005 (ip), vehicle: Klucel + Tween-80 95 % of control | dose: 60.0 mg/kg/injection, schedule: Q01DX005 (ip), vehicle: Klucel + Tween-80 107 % of control and 96 % of control

CC(C)N[C@@H]1CCC[C@@H]2c3ccccc3[C@@]21O
inactive: [11] 96 % of control | [12] 95 % of control
